Assay [1] has as its target T1, 5-lipoxygenase (Rattus norvegicus, UniProt P12527).
T1 construct: 20,000x g supernatant from homogenized RBL-1 cells; endogenous in cells; host or cells: RBL-1 cells (20,000x g supernatant of homogenate)
T1 sequence (P12527 1-673): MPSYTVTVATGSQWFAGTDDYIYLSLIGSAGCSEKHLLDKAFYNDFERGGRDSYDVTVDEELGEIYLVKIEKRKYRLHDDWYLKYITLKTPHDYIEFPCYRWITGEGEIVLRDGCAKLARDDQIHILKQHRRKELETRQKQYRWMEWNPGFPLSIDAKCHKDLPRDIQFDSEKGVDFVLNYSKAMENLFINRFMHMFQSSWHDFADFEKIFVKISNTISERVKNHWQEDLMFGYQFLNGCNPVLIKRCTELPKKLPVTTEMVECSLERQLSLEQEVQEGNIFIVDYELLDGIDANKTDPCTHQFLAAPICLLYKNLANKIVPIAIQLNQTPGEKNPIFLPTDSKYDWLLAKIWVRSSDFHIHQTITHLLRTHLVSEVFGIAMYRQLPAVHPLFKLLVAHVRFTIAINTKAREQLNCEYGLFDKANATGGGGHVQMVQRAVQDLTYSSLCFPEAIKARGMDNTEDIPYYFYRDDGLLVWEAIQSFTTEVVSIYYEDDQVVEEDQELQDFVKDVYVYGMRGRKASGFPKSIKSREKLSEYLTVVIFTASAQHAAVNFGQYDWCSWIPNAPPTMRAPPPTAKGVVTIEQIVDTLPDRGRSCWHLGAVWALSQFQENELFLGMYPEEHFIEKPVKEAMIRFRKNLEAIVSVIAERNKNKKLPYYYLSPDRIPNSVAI
The assay is described as follows: Inhibition of 5-lipoxygenase activity (20,000x g supernatant from homogenized RBL-1 cells). The settings on record: In vitro, 20,000x g supernatant from homogenized RBL-1 cells. It counts as biochemical. On the procedure:
Inhibition of 5-lipoxygenase activity was determined using the 20,000x g supernatant from homogenized RBL-1 cells in a similar manner as that described by Dyer and coworkers (Dyer, R.D.; Haviv, F,; Hanel, A. M.; Bornemier, D. A.; Carter, G. W. Fed. Proc., Fed. Am. Soc. Exp. Biol. 1984, 43, 1462A). IC50 values (concentration of compound producing 50% enzyme inhibition) were calculated by linear regression analysis of percentage inhibition versus log inhibitor concentration plots.

The next assay relates to tumor cell growth. The settings on record: in rats; Ger. Offen. 2931, 573; cited from earlier work.
Assay [2] deals with 5-lipoxygenase. The note with it: Young, Dyer, Carter, Federation Proceedings 44(4):904, 1985; cited from earlier work.
For assay [3] the following is noted: Drugs of the Future, 8, 1023, 1983; cited from earlier work.

The compound `CN(CCO)c1nc(N2CCCCCCC2)c2nc(N(C)CCO)nc(N3CCCCCCC3)c2n1` [Example 4, 2,6-bis-2-(Methylamino)ethanol-4,8-bis-N-perhydroazocinepyrimido[5,4-d]pyrimidine] came in with an IC50 against 5-lipoxygenase [1] of 920 nM.

Regarding `OCCNc1nc(N2CCCCC2)c2nc(NCCO)nc(N3CCCCC3)c2n1` [Example 2, 2,6-bis-Aminoethanol-4,8-bis-N-piperidinopyrimido[5,4-d]pyrimidine], the IC50 against 5-lipoxygenase [1] was 2900 nM.

Consider `CN(CCO)c1nc(N2CCCCC2)c2nc(N(C)CCO)nc(N3CCCCC3)c2n1` [Example 1, 2,6-bis-2-(Methylamino)ethanol-4,8-bis-N-piperidinopyrimido[5,4-d]pyrimidine], for which inhibition against 5-lipoxygenase [1] was half-maximal at 340 nM (IC50).

As to `OCCN(CCO)c1nc(N2CCCCC2)c2nc(N(CCO)CCO)ncc2n1` [2,6-bis-(diethanolamino)-4-piperidinopyrimido[5,4d]pyridimine], in the assay with tumor cell growth, the “inhibit tumor cell growth” value is given as “shown to inhibit tumor cell growth in rats”.

As to `OCCN(CCO)c1nc(N2CCCCC2)c2nc(N(CCO)CCO)nc(N3CCCCC3)c2n1` [dipyridamole, 2,6-bis-(diethanolamino)-4,8-dipiperidinopyrimido[5,4-d]pyrimidine], the “reported to be an inhibitor of 5-lipoxygenase” value with 5-lipoxygenase [2] is given as “inhibitor of 5-lipoxygenase”.

`CCN(CC)c1nc(N(CCO)CCOC)nc2c(N(CC)CC)nc(N(CCO)CCOC)nc12` [2,6-bis-(2-hydroxyethyl-2-methoxyethylamino)-4,8-bis-(diethylamino)pyrimido[5,4-d]pyrimidine]: the “reported to be a hypertensive agent” value in assay [3] was “hypertensive agent”.

Regarding `CN(CCO)c1nc(N2CCCCCC2)c2nc(N(C)CCO)nc(N3CCCCCC3)c2n1` [Example 3, 2,6-bis-2-(Methylamino)ethanol-4,8-bis-N-perhydroazepinepyrimido-[5,4-d]pyrimidine], on 5-lipoxygenase [1], the IC50 was 300 nM.

The IC50 is the concentration at which inhibition is half-maximal. A higher IC50 goes with weaker potency in that assay.

The values above are taken from US4963541A, “Pyrimido-pyrimidine lipoxygenase inhibiting compounds” (Abbott Laboratories, priority 1989, dated 1990).
